From patent EP4803511A1, “SMALL MOLECULE COMPOUND HAVING SULFONIC ACID OR SULFINIC ACID LACTONE STRUCTURE, COMPOSITION AND USE THEREOF” (Hangzhou Phecdamed Co., Ltd., priority 2023, dated 2025) come the findings set out here.

Each structure is given as a SMILES string. In brackets after ≈: the same amount, converted by molar mass.

The nature of series [1]: Kinetic solubility in aqueous buffer. In kind it is physicochemical. The conditions noted are these: 2 hrs at 25 °C. The protocol: Experimental Methods: 30 µL of the 10 mM DMSO stock solution of the compound to be test was placed in a solubility sample plate (duplicate), 970 µL of aqueous buffer solution was added to the plate, and the plate was sealed with a sealing membrane and shaken at 1100 rpm for 2 hrs at 25 °C. The sample in the solubility plate was transferred to a filter plate, and filtered to obtain a filtrate. 10 µL of the filtrate was transferred into 980 µL of methanol along with 10 µL of DMSO, and then the solution was diluted 10-fold with methanol:water (1:1), and the resulting sample was analyzed by LC-MS/MS to obtain Area (filtered). Separately, 10 mM of the DMSO stock solution of the compound to be test was diluted to 300 µM with DMSO. 10 µL of this 300 µM DMSO solution and 10 µL of aqueous buffer solution were added into 980 µL of methanol, and then diluted 10-fold with methanol:water (1:1), and the resulting sample was analyzed by LC-MS/MS to obtain Area (std). The kinetic solubility was calculated according to the following formula: Solubility(μM) = (Areafiltered × DFfiltered)/(Areastd × DFstd) × [std] × DFstd [formula] wherein DF is the dilution factor.

For series [2], the system named is HaCaT cells. Nature of the series: ROS content / ROS scavenging rate in HaCaT after UVB radiation (DCFH-DA). In kind it is cell-based, human. The settings on record: content 0.0025%; HaCaT cells after UVB radiation. An excerpt:
Oxidative reactions such as respiration and metabolism in organisms generate reactive free radicals. Under normal bodily conditions, free radicals have a stable scavenging system, so that the free radical content of the body is kept at a relatively low concentration. Oxidative stress (OS) refers to an imbalance between oxidation and antioxidation in the body due to endogenous and/or exogenous stimuli, resulting in excessive free radical production. Excessive free radicals produce a series of negative effects in the body, including oxidative damage to biomolecules and further causing cell death and tissue damage, etc. In organisms, almost all ROS, except for trace amounts utilized by the body, should be promptly scavenged. Medium Wave Erythema Effect Ultraviolet (UVB) (280-319 nm) radiation damage is the most important factor leading to photoaging of the skin, primarily damaging keratinocytes (HaCaT), specifically manifested as the accumulation of photoproducts, increased ROS, and exacerbated oxidative damage, etc. Over long periods of evolution, organisms have developed a complete antioxidant system, maintaining a dynamic balance between the production and elimination of free radicals. This is an adaptive mechanism of organisms, and the main members include antioxidant enzymes, antioxidants, and proteins that separate transition metals, all of which can specifically limit oxidative damage to the body. Therefore, the antioxidant efficacy of a test compound can be evaluated by detecting the ROS scavenging rate in keratinocytes after UVB radiation.
• 1) Cell inoculation: HaCaT cells were inoculated into a 96-well plate at 2 × 10^4/well, cultured in an incubator (37 °C, 5% CO2) for 12 hrs, and a control group (120 mJ/cm^2 + vehicle control), a low concentration group (120 mJ/cm^2 + low concentration compound), a medium concentration group (120 mJ/cm^2 + medium concentration compound), and a high concentration group (120 mJ/cm^2 + high concentration compound) were respectively provided. • 2) UVB modeling: The HaCaT cells were washed 3 times with D'Hanks before UVB radiation, 50 µL of D'Hanks was added into the wells, to make the cells to be immersed, and the control group was coated with tinfoil and placed in the dark. For the test groups, UVB modeling was performed on the group requiring radiation, respectively. • 3) Administration: DMEM medium containing different concentrations of compound were added to each test group for continued culture for 24 hrs. • 4) Transferring the ROS fluorescent probe: DCFH-DA was Diluted to a final concentration of 10 µmol/L using PBS at a dilution ratio of 1:1000. The culture medium in all wells except the bare cell wells was discarded. After washing three times with PBS, 200 µL of DCFH-DA working solution was added to each well, then incubated in a CO2 incubator for 30 min, and after incubation, the cells in each well were washed with PBS for 3 times. • 5) Fluorescence analysis. The 96-well plate to be tested was placed on the detection stage of the fluorescence microplate reader, with the […] set to 525 nm, the excitation light wavelength set to 488 nm, and the reading was analyzed.
ROS scavenging rate (%) = (S(Modelcontrolgroup)−S(Samplegroup))/(S(Modelcontrolgroup)) × 100% [formula] wherein S is fluorescence intensity.

Usually kinetic solubility stands for solubility judged after dilution from a stock solution rather than from solid. For the compound `O=c1oc2cc(O)ccc2c2ccc(O)cc12` [Urolithin A, reference compound], the kinetic solubility at 2 h in series [1] is 98.8 µM (≈ 22.5 µg/mL).

In series [2], `CN(C)C(=O)Oc1ccc2c(c1)OS(=O)(=O)c1cc(OC(=O)N(C)C)ccc1-2` [Compound I-13] returned an ROS scavenging rate of 35%.

`CC(C)C(=O)Oc1ccc2c(c1)OS(=O)(=O)c1cc(OC(=O)C(C)C)ccc1-2` [Compound I-14] gave an ROS scavenging rate in series [2] of 29%.
